Where “and” joins values, the source holds several entries; their conditions need not be identical. Equal entries are not always repeated.
Experiments:
MRGPRX4 S83L (L83) [1] = biological target: T1, MRGPRX4 S83L (L83) (Homo sapiens, UniProt Q96LA9); assay: PRESTO-Tango β-arrestin recruitment assay, HTLA cells stably expressing S83L MRGPRX4; type: cell-based; details: 1.95e-8 M, single replicate
Method: HTLA cells, a cell line derived from HEK293 and engineered to stably express a tTA-dependent luciferase reporter and a β-arrestin2-TEV fusion gene, were generously provided by Richard Axel's laboratory. HTLA cells were cultured in growth medium containing 2 μg/ml puromycin and 100 μg/ml hygromycin B in 5% CO2 at 37 °C. Stably MRGPRX4-expressing HTLA cells were generated by transfecting pcDNA3.1(+)-Zeo containing MRGPRX4-Tango construct (either with WT or S83L mutant sequence) into HTLA cells with Lipofectamine 3000 and selecting the successful transfected clones with Zeocin.
HTLA cells stably expressing either WT or S83L MRGPRX4 were seeded in PDL-coated 96-well white clear bottom cell culture plates with DMEM containing 10% FBS, at a density of 35,000 cells per well and were allowed to attach to the bottom of the wells overnight. The next day, growth medium was replaced with 100 μl of serum-free medium containing the tested drugs at various concentrations, and the cells were then incubated at 37°C for 24 h. On the following day, media with drug solutions was removed and 50 μl per well of Bright-Glo™ Reagent from Bright-Glo™ Luciferase Assay System (Promega) was loaded. The plate was incubated at room temperature in the dark for 5 min, and the relative luminescence units were measured using the Flexstation-3 instrument with SoftMax®Pro 7.1 software (Molecular Devices). Dose response curves and EC50s were analyzed as described above.
MRGPRX4 by β-arrestin (Tango) recruitment assay. Data are from three independent experiments,
performed in triplicate, and depicted as mean ± SEM.

[2] = test system: NP2-X4+ mice (MRGPRX4 in Mrgpra3+ NP2 sensory neurons); assay: Itch behavioral study (scratching bouts after subcutaneous nape injection) in NP2-X4+ mice; type: in vivo, mouse
WT NP1-3 DRG neurons = assay: GCaMP6s calcium imaging of NP1-3 DRG neurons from Pirt-Cre; Rosa-lsl-GCaMP6s mice; type: cell-based, mouse; details: 10 µM
Method: Murine DRGs (from both male and female) were harvested from all spinal segments and digested in dispase (5 mg/ml) / type I collagenase (1 mg/ml) enzyme mix at 37 °C for an hour. Enzyme mix was replaced with complete DH10 media (90% DMEM/F12, 10% FBS, penicillin (100 units/ml), and streptomycin (100 μg/ml)) and gently triturated with 1 ml pipette tip until the media turned cloudy without visible tissue chunks. Dissociated tissues were filtered through a 70 μm filter and spun down 1250 rpm for 5 min at RT. Supernatant was removed and the cell pellet was resuspended in complete DH10 media. Cell suspension was then added on top of poly-D-lysine- and laminin-coated coverslips and sat for 1–2 h at 37°C. Complete DH10 media supplemented with NGF (50 ng/ml) was then added into the vessel. Neurons were allowed to recover overnight at 37°C for the next-day calcium imaging experiment.
Calcium imaging data was collected with a Nikon Eclipse TE 200 microscope. Time series GCaMP6 fluorescence intensity was acquired through the FITC/GFP channel. […] Neurons with GCaMP6 signal rose above 50% of the baseline intensity after compound application were counted as positive responders and the percentage of responding neurons was calculated. […]
(top) and individual (bottom) calcium activity, measured by fluorescence intensity normaliz ed to […]
activity from the recorded neurons is shown in heatmap. […]

HTLA cells = assay: PRESTO-Tango β-arrestin recruitment assay, parental HTLA cells without MRGPRX4 (control, fig. S1); type: cell-based
Excerpt: Supplement NIHMS2038790-supplement-table.xlsx, sheet "fig. S1" | column: Concentration (M)

WT mice = assay: Itch behavioral study in WT mice across concentrations (fig. S4)
Method: Experimenters and subjects scoring the recorded videos were both blind to the mouse genotype and tested compounds. Behavioral tests comparing NP2-WT and NP2-X4+ scratching behavior were 6–12weeks old littermates including both genders. In brief, on the day preceding the experiment, animals were acclimated to the test chamber for at least 30 min and the experimenters performed mock injections 1–2 times in between. On the day of experiments, animals were habituated in test chambers for 10 min before receiving subcutaneous injection of 50ul compounds. Videos were recorded for 30 min after the injection. A bout of scratching was defined as a sustained scratching movement initiated by hindpaws toward the injection site (until the pause of the movement / withdrawal of the hindpaw). Scratching bouts were quantified within the 30 min record sessions.

MRGPRX4 WT (S83) = MRGPRX4 WT (S83) (Homo sapiens, UniProt Q96LA9, L83S); assay: Calcium mobilization assay (FLIPR), WT (S83) MRGPRX4 transiently expressed in HEK293T cells; type: cell-based; parameters: expressed in transfected cells; host or cells: HEK293T, transient
In short: (§1)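 HEK293T cells were transfected one day earlier with WT (S83) or S83L MRGPRX4, loaded with Calcium 5 dye in HBSS/20 mM HEPES pH 7.4 for 1 h at 37 °C, and read on Flexstation-3. Response was maximum minus baseline; EC50 from 4PL fit, triplicate wells, independent experiments.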

MRGPRX4 S83L (L83) [3] = biological target: T1, MRGPRX4 S83L (L83); assay: Calcium mobilization assay (FLIPR), S83L MRGPRX4 transiently expressed in HEK293T cells; type: cell-based; parameters: expressed in transfected cells; host or cells: HEK293T, transient; details: for Calcium mobilization response (Fig. 4D dose-response): each cell one replicate
In short: as §1

MRGPRX4 WT (S83), sequence (Q96LA9 whole entry L83S): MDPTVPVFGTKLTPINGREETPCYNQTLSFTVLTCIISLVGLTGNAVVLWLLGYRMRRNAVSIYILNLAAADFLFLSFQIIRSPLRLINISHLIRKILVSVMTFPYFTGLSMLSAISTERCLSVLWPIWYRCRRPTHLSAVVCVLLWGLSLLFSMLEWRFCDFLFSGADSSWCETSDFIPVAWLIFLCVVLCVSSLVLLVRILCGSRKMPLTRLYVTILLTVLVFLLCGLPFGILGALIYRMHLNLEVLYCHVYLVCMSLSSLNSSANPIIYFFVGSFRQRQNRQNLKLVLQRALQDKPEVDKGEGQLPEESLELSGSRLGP
T1 sequence (Q96LA9 whole entry, stated change not applied, the tested form may be a part): as the sequence (Q96LA9 whole entry L83S) above, with S83L counted along it

`CC(C)c1cccc(C(C)C)c1OCOP(=O)(O)O` [Fospropofol] was tested, and the “fig. S7 response (raw signal), concentration-response” value (MRGPRX4 S83L (L83) [1]) was 10514, the “Scratching / itch behavior, NP2-X4+ mice vs WT littermates” value ([2]; 50 μl 10 mM nape injection, 30 min) was “significantly increased scratching behavior” and the “Scratching bouts of individual animals” value ([2]; NP2-X4+, 30 min after injection of 50 μl 10 mM into the nape, each cell one mouse) was 79 (2×) and 60 and 28 and 56 and 5 and 40 and 132 and 49 and 4 and 42 and 59 and 43 and 52. For the same molecule, the “Activation of NP1–3 neuron populations” value (WT NP1-3 DRG neurons) was “few neurons were activated”, the “PRESTO-Tango response (fig. S1), single replicate” value (“PRESTO-Tango response (fig. S1)” below) (HTLA cells; concentration 1.95e-8 M) was 0.00694 and 0.004644 and 0.006153 and 0.00965 and 0.002832 and 0.003328 and 0.008458 and 0.007173 and 0.001142 and the “PRESTO-Tango response (fig. S1)” value (HTLA cells; concentration 3.91e-8 M) was 0.00458 and 0.005779 and 0.004441 and 0.006153 and 0.01503 and 0.00701 and 0.000445 and 0.01011 and 0.01094. The “PRESTO-Tango response (fig. S1)” value (HTLA cells; concentration 7.81e-8 M) was 0.003343 and 0.006009 and 0.009902 and 0.005737 and 0.003469 and 0.004602 and 0.006927 and 0.00283 and 0.006775, the “PRESTO-Tango response (fig. S1)” value (HTLA cells; concentration 1.56e-7 M) was 0.003508 and 0.005703 and 0.009009 and 0.008984 and 0.006514 and 0.007694 and 0.009731 and 0.002935 and 0.00804 and the “PRESTO-Tango response (fig. S1)” value (HTLA cells; concentration 3.13e-7 M) was 0.002922 and 0.004925 and 0.007537 and 0.0115 and 0.004508 and 0.006726 and 0.004052 and 0.005477 and 0.00953. The “PRESTO-Tango response (fig. S1)” value (HTLA cells; concentration 6.25e-7 M) was 0.004976 and 0.01037 and 0.009311 and 0.01735 and 0.01013 and 0.008402 and 0.01193 and 0.01132 and 0.007015, the “PRESTO-Tango response (fig. S1)” value (HTLA cells; concentration 1.25e-6 M) was 0.005116 and 0.008433 and 0.01261 and 0.0248 and 0.006302 and 0.01317 and 0.01357 and 0.000979 and 0.02066 and the “PRESTO-Tango response (fig. S1)” value (HTLA cells; concentration 2.5e-6 M) was 0.004708 and 0.01187 and 0.01433 and 0.0357 and 0.005924 and 0.01747 and 0.01767 and 0.01738 and 0.009944. For the same molecule, the “PRESTO-Tango response (fig. S1)” value (HTLA cells; concentration 5e-6 M) was 0.006149 and 0.02356 and 0.0209 and 0.04204 and 0.009157 and 0.0186 and 0.01895 and 0.003902 and 0.03736, the “PRESTO-Tango response (fig. S1)” value (HTLA cells; concentration 1e-5 M) was 0.007859 and 0.01771 and 0.01368 and 0.04592 and 0.005971 and 0.02299 and 0.000906 and 0.03405 and 0.02211 and the “PRESTO-Tango response (fig. S1)” value (HTLA cells; concentration 2e-5 M) was 0.005575 and 0.02041 and 0.01412 and 0.04838 and 0.01541 and 0.027 and 0.00299 and 0.03805 and 0.0244. The “Scratching bouts (each well represents individual mouse)” value (WT mice; 1 mM subcutaneous nape injection) was 16 and 12 and 11 and 28, the “Scratching bouts (each well represents individual mouse)” value (WT mice; 10 mM subcutaneous nape injection) was 5 and 20 and 15 and 16 and the EC50 (MRGPRX4 WT (S83); EC50s (each well represents individual experiment), WT (S83), Fig. 4E, unit not in the head, taken from Concentration (M) of the sheet and pEC50 [M] of Fig. 4E) was 2.8e-08 M and 4.03e-08 M and 1.9e-08 M. The “calcium mobilization response (Fig. 3E and 3F dose-response)” value (MRGPRX4 WT (S83); WT, 4.57e-8 M) was 59.0909, the “calcium mobilization response (Fig. 3E and 3F dose-response)” value (MRGPRX4 WT (S83); WT, 4.12e-7 M) was 88.6023 and the “Calcium mobilization response (Fig. 4D dose-response)” value (MRGPRX4 WT (S83); WT, 4.12e-7 M, each cell one replicate) was 88.6023. The “Potency at S83- vs L83-MRGPRX4” value (MRGPRX4 WT (S83); calcium mobilization, compared with S83L (A17)) was “improved potency at S83-MRGPRX4”, the “Calcium mobilization response (Fig. 4D dose-response)” value (MRGPRX4 S83L (L83) [3]; 1.52e-8 M) was 30.9484 and the “Calcium mobilization response (Fig. 4D dose-response)” value (MRGPRX4 S83L (L83) [3]; 0.0001 M) was 92.0965. For the same molecule, the EC50 (MRGPRX4 S83L (L83) [3]; EC50s (each well represents individual experiment), Fig. 4E, unit not in the head, taken from Concentration (M) of the sheet and pEC50 [M] of Fig. 4E) was 1.79e-07 M and 1.3e-07 M and 1.88e-07 M.

Source: publication PMC11645656, “MRGPRX4 mediates phospho-drug associated pruritus in a humanized mouse model” (Science translational medicine, 2024)
